The test system of one assay is PC12 cells. Nature of the assay: Neurite growth on PC12 cells. The assay is classed as cell-based. The method, then:
Biological Activity of Fragments on PC12 cells: The trypsin digested fragments in various concentrations were tested for neurite growth on PC12 cells. Tissue culture plates having 24 wells were seeded with 10^5 PC12 cells in serum free Dulbeco Modified Eagle's medium (DMEM). The results were read after 96 hours for neurite outgrowth.

Assay [1] in a line: Mitogenic activity of synthetic constructs (deletion series). The assay is classed as cell-based. To be noted: constructs of 5 to 21 amino acids compared. From the text: Several synthetic constructs were made based on portions of this sequence by deleting one amino acid from one terminal at a time. In this manner, several constructs consisting of 5 to 21 amino acids were made and tested for mitogenic activity. […] […] This peptide is designated hereinafter as Oxynor peptide -10.

The test system of a further assay is 4 mm punched wounds. Briefly: 4 mm punched wounds on the back of mice. The format is in vivo. As to the method:
Experimentally produced 4 mm punched wounds on the back of mice were treated with β taipoxin to compare with Oxynor peptide-10 treatment.

For assay [2], the system named is 6 mm ischemic skin wounds. Nature of the assay: 6 mm ischemic skin wounds in rat. The assay is classed as in vivo. Particulars: 100 μg/ml in hydrogel vehicle once daily; days 7 and 10. As to the method:
Natural β-taipoxin and Oxynor peptide-10 were tested against each other in vivo at a concentration of 100 μg/ml in hydrogel vehicle applied once daily to help heal 6 mm ischemic skin wounds in rat. At days 7 and 10 the wounds treated with Oxynor peptide-10 were about 15% smaller in area than the wounds treated with natural β-taipoxin.

For a further assay, the system named is Anti-β-taipoxin. Nature of the assay: Immunological reaction with anti-β-taipoxin. The assay is classed as binding, mice. An excerpt:
This proves that Oxynor peptide-10 is an integral part of the natural β-taipoxin.

Where no end group is shown, it is not given here.

Regarding “KGGSLLNFANLIENDVPIDHM [Oxynor peptide-21]”, the “neurite growth of trypsin digest fragments” value with PC12 cells (10^5 PC12 cells, serum free DMEM, read after 96 hours) is given as “most neurite growth at the lowest concentration”.

For the substance SLLNFANLIE [Oxynor peptide-10], the “neurite growth on PC12 cells” value in the assay with PC12 cells (similar concentrations (2 to 5) in serum-free medium) was “produced neurite growth”. Moreover, the mitogenic activity entry in assay [1] is reported as “most active”. The closure of wounds result in the assay with 4 mm punched wounds (after six days, PBS controls open) was “complete closure of the wounds”. The “histological examination of the skin around the wounds” value in the assay with 4 mm punched wounds (mice, treated wounds) was “epidermis almost like normal skin”. Further, the “wound area smaller than wounds treated with natural β-taipoxin” value in assay [2] is “about 15%”. Also, in the assay on Anti-β-taipoxin, the “immunological reaction with anti-β-taipoxin made in mice” value was “reacted immunologically”.

With “Ser Leu Leu Asn Phe (SLLNF; SYNTHESIZED. CORRESPONDS TO POSITIONS 4-8 ABOVE.) [Oxynor peptide-5]”, the mitogenic activity result in assay [1] is given as “active, but less active”.

For the origin of these results see patent publication US7129334B2, “Synthetic peptide and uses for same” (priority 2001, dated 2006).
